Legend:
Assay type in all cases: in vivo, BALB/c mice
interleukin-5 = experiment: Ocular (conjunctival) administration: interleukin-5 production by sandwich ELISA; settings: 5 μg peptide eight times, supernatant 64 hours, SBP 10 μg/ml, versus ocularly untreated mice, FIG. 3
Protocol: (§1) Mucosal administration of antigens is thought promising in immunotherapy, and the conjunctiva is considered to be one of the routes of administration (J. Immunol. 2000, 164: 4543-4550). Biodegradable nanoparticles having immobilized thereon T cell recognizable epitope peptide were ocularly-instilled to investigate the influence on the response to the subsequent antigen sensitization. A saline solution of Cryj2 T cell recognizable epitope peptide (P2) (5 μg of the peptide) or a suspension of P2 immobilized nanoparticles (corresponding to 5 μg of the peptide) administered dropwise, in an amount of 10 μl, to the conjunctivas of the eyes of BALB/c mice (7-week-old male) eight times (on days 1-4 and days 6-9). On day 16, a suspension of 5 μg of cedar pollen roughly purified antigen SBP in Freund's incomplete adjuvant was injected for antigen sensitization into the right footpads to give rise to an immune response. […] The proliferation of cells was measured by the same method as described in Example 2. For the measurement of cytokine production, the supernatant was collected 64 hours after the start of incubation to quantitatively determine interleukin-5 and interferon-γ by sandwich ELISA using Bio-Plex cytokine assay system (product of Bio-Rad).

interferon-γ = experiment: Ocular (conjunctival) administration: interferon-γ production by sandwich ELISA; settings: 5 μg peptide eight times, supernatant 64 hours, SBP 10 μg/ml, versus ocularly untreated mice, FIG. 3
Protocol: as §1

[1] = test system: draining lymph node cells; experiment: Immunization potential: lymph node cell proliferation ([3H]thymidine intake) after subcutaneous footpad injection; settings: s.c. footpads, nanoparticles corresponding to 20 μg peptide, FIG. 1; for cell proliferation response (thymidine intake) to the injected T cell recognizable epitope peptide: day 11 lymph node cells stimulated with P1 or P2 20 μg/ml; for cell proliferation response (thymidine intake) to SBP: day 11 lymph node cells stimulated with SBP 10 μg/ml
Protocol: (§2) Subcutaneously injected into the footpads of BALB/c mice (6-week-old male) was 100 μl (50 μl for each footpad) of a suspension of biodegradable nanoparticles having immobilized thereon Cryj1 or Cryj2 T cell recognizable epitope peptide (P1 or P2) (the amount of nanoparticles corresponding to 20 μg of the peptide) or nanoparticles having no peptide immobilized thereon. On day 11, a draining lymph node was removed to collect lymph node cells, which were then suspended in a mixture of RPM 11640 medium and 10% fetal calf serum (FCS). Such cells from two mice were combined together for use in each group. The cells were placed onto a 96-well incubation plate in an amount of 5×10^5 in each well. Further placed into each well as an antigen stimulus was P1 or P2 to a final concentration of 20 μg/ml or a cedar pollen roughly purified antigen (Sugi Basic Protein, SBP, Asahi Food and Health Care Co., Ltd.) in an amount of 10 μg/ml. Half of the mixture to be incubated was replaced by a fresh mixture to be incubated and containing [^3H] tritium-thymidine (0.5 μCi) 48 hours after the start of incubation. The cells were then collected onto a glass filter 16 hours thereafter by a cell harvester, and the [^3H] tritium intake (thymidine intake) was measured by a liquid scintillation counter for the evaluation of cell proliferation. The SBP mentioned above is an allergen containing both Cryj1 and Cryj2.

[2] = test system: draining lymph node cells; experiment: Ocular (conjunctival) administration, SBP sensitization: cell proliferation (thymidine intake) on SBP stimulation; settings: 5 μg peptide eight times, SBP sensitization day 16, SBP 10 μg/ml, versus ocularly untreated mice, FIG. 3
Protocol: as §2, with “Further placed into each well as an antigen stimulus was P1 or P2 to a final concentration of 20 μg/ml or a cedar pollen roughly purified antigen (Sugi Basic Protein, SBP, Asahi Food and Health Care Co., Ltd.) in an amount of 10 μg/ml. Half of the mixture to be incubated was replaced by a fresh mixture to be incubated and containing [^3H] tritium-thymidine (0.5 μCi) 48 hours after the start of incubation.” left out, “The SBP mentioned above is an allergen containing both Cryj1 and Cryj2.” left out
Mucosal administration of antigens is thought promising in immunotherapy, and the conjunctiva is considered to be one of the routes of administration (J. Immunol. 2000, 164: 4543-4550). […] The proliferation of cells was measured by the same method as described in Example 2. […]

Row | Sequence | production of interleukin-5 (Th2 cytokine) (interleukin-5) | production of interferon-γ (Th1 cytokine) (interferon-γ) | cell proliferation response (thymidine intake) to the injected T cell recognizable epitope peptide [1] | cell proliferation response (thymidine intake) to SBP [1] | cell proliferation response (thymidine intake) to the stimulation with the antigen [2]
1 | RAEVSYVHVNGAKF [P2 alone] | reduced to nearly the same extent | lower | specific cell proliferation response was observed | observed was a response to the SBP | lower
2 | KQVTIRIGCKTSSS [P1, in b77 the label stands for the P1-immobilized nanoparticles injected] | – | – | specific cell proliferation response was observed | observed was a response to the SBP | –

Reference: patent publication US20090156480A1, “Biodegradable nanoparticle having t-cell recognizable epitope peptide immobilized thereon or encapsulated therein” (priority 2005, published 2009)
